Laboratory results: PubChem BioAssay (NCI)
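The compound was tested at five concentrations on cells cultured in 96-well plates, with a 48-hour exposure period. GI50 marks 50% less growth. At the TGI there is no net growth.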

What was measured:
Assay in all cases: NCI tumour cell line growth inhibition, 48 h
[1] = system: IGROV1 ovarian
[2] = system: A498 renal
[3] = system: NCI-H522 lung
[4] = system: SF-539 CNS
[5] = system: SNB-19 CNS
[6] = system: BT-549 breast
[7] = system: U251 CNS
[8] = system: HCC-2998 colon
[9] = system: EKVX NSCLC
[10] = system: CAKI-1 renal

Structure (SMILES)	TGI [1] [µM]	TGI [2] [µM]	TGI [3] [µM]	TGI [4] [µM]	TGI [5] [µM]	TGI [6] [µM]	TGI [7] [µM]	TGI [8] [µM]	TGI [9] [µM]	TGI [10] [µM]	GI50 [10] [µM]	GI50 [2] [µM]	GI50 [4] [µM]	GI50 [9] [µM]	GI50 [1] [µM]	GI50 [3] [µM]	GI50 [6] [µM]	GI50 [7] [µM]	GI50 [8] [µM]	GI50 [5] [µM]
CN(C)CCNc1ccc2c(=O)n(CCN(C)C)c(=O)n3c4ccc(O)cc4c(=O)c1c23	0.53	0.515	0.221	< 0.0389	0.729	2.35	0.439	0.186	0.57											
O=C(Nc1ccccc1)N(C1=NCC(CI)S1)c1ccc(F)c(F)c1 (stereo not drawn)	> 100	> 100		> 100	> 100		> 100	> 100	> 100	> 100										
CCO/C(=N/S(=O)(=O)C(F)(F)F)N(C(C)C)C(C)C	> 100	> 100	> 100	> 100	> 100	> 100	> 100		> 100	> 100										
Cc1ccc(S(=O)(=O)NC(=O)Nc2nnc(S(N)(=O)=O)s2)cc1		> 100		> 100	> 100		> 100	> 100	> 100	> 100										
CNC(C)(C)Cc1ccc(Cl)cc1	> 100	> 100	> 100	> 100			> 100	> 100	> 100	> 100										
S=C1c2ccc(Cl)cc2-n2cnnc2C2CSCN12 (stereo not drawn)	> 100	> 100	> 100		> 100	> 100	> 100	> 100	> 100	> 100										
CC1=NNC(=O)C1C1C(=O)NN=C(c2c[nH]c3ccccc23)C1Br (stereo not drawn)	> 100	> 100	92.4	> 100	> 100	> 100	> 100		> 100	> 100										
CC(=O)O[C@H]1CC(C)(C)C(=C=C/C(C)=C/C=C/C=C/C=C(C)/C=C2C=C(/C=C/[C@@]34O[C@]3(C)C[C@@H](O)CC4(C)C)C(=O)O/2)[C@](C)(O)C1	7.72	> 100		38	> 100	8.16	> 100	> 100		98.1										
N#CCCN(CCC#N)c1ccc(/C=C2\N=C(c3ccccc3)N(c3ccc(F)cc3)C2=O)cc1	> 100	> 100		> 100	> 100	> 100	> 100		> 100	> 100										
O=C(/C=C(/C=C/c1ccc2[nH]ccc2c1)OB(F)F)/C=C/c1ccc2[nH]ccc2c1		6.71		9.29					86.9	10.1	2.56	2.61	2.68	3.17						
CC(C)(C)c1ccccc1N1C(=O)c2ccc3c4c(ccc(c24)C1=O)N(c1ccccc1C(C)(C)C)C3=O	> 100		> 100	> 100	> 100	> 100	> 100	> 100	> 100	> 100										
COc1ccc(N2CC(=O)N(C(=O)COc3ccc(OCC(=O)N4C(=O)CN(c5ccc(OC)cc5)C4=S)cc3)C2=S)cc1	> 100	> 100	> 100		> 100	> 100	> 100	> 100	> 100	> 100										
Cn1nc2ccc([N+](=O)[O-])c(Cn3nnc4ccccc43)c2n1	> 100	> 100		> 100	> 100	> 100	> 100	> 100	> 100	> 100										
O=S1(=O)c2ccccc2Oc2ccc(C(/C=N/O)=N/O)cc21	68.9		26.7	84.8			> 100		57.7	42.2										
C[C@H](c1ccccc1)N1C(=O)[C@@H](O)[C@H]1[C@H](CO)OCc1ccccc1	> 100	> 100			> 100		> 100		> 100											
O=C(Nc1ccc(N2C(=O)CSC2c2ccccc2O)cc1)c1ccc(N2C(=O)CSC2c2ccccc2O)cc1 (stereo not drawn)	> 100		> 100	> 100	> 100	> 100	> 100	> 100	> 100	> 100										
COc1cc2c(c(O)c1O)C(=O)C1CCC(=O)N1C2c1cccc2ccccc12 (stereo not drawn)	> 50	> 50	> 50	> 50	> 50	> 50	> 50		> 50											
Cc1ccc2nc(SCC(=O)N=Nc3c(O)[nH]c4ccccc34)n(-c3ccccc3)c(=O)c2c1		28.1		19	40.6		24.8	28.6	29.2	43.3										
COc1cc(/C=C2\C(=O)N(c3cccc([N+](=O)[O-])c3)C(c3ccccc3)S2(=O)=O)cc(OC)c1OC (stereo not drawn)	> 100	> 100	> 100		> 100	> 100	> 100	> 100	> 100	> 100										
CSc1ncc2c(n1)C(C#N)C1Sc3ccccc3N1C2=O (stereo not drawn)	> 100	> 100	> 100	> 100	> 100	> 100	> 100		> 100	> 100										
CC(=O)NC1C(OCc2ccccc2)OC(CO)C(O)C1OCC(=O)N1CCCC1C(=O)N[C@@H](CCC(=O)NCCCCNc1c2ccccc2nc2cccc([N+](=O)[O-])c12)C(N)=O (stereo partly drawn)	50.6	> 100		> 100	62.4	43.7	48.9	52.4	> 100	> 100										
COc1cc(C2c3c(ccc4ccccc34)C(=O)C3CCC(=O)N32)cc(OC)c1OC (stereo not drawn)	> 50	> 50	> 50	> 50	> 50	> 50	> 50		> 50	> 50										
CC(N=NNc1ccc(-c2nc3ccccc3[nH]2)cc1)C(=O)O (stereo not drawn)	> 100	> 100	75.7	> 100	> 100	57.6	60.8		> 100	> 100										

Structure (SMILES)	TGI [1] [µM]	TGI [2] [µM]	TGI [3] [µM]	TGI [4] [µM]	TGI [5] [µM]	TGI [6] [µM]	TGI [7] [µM]	TGI [8] [µM]	TGI [9] [µM]	TGI [10] [µM]	GI50 [10] [µM]	GI50 [2] [µM]	GI50 [4] [µM]	GI50 [9] [µM]	GI50 [1] [µM]	GI50 [3] [µM]	GI50 [6] [µM]	GI50 [7] [µM]	GI50 [8] [µM]	GI50 [5] [µM]
CN1CCC(CNc2cc(C3(C(=O)Nc4cc(C(=O)Nc5ccc(Cl)c(C(F)(F)F)c5)ccc4F)CC3)ncn2)CC1	6.19	7.87	4.55	3.19		9.89	3.62	5.22	6.62			2.52	1.61	2.46	2.17	2.01	3.01	1.63	2.39	
CCNCCNC(=O)c1ccc(I)cc1	> 100	> 100		> 100	> 100	> 100	> 100	> 100	> 100	> 100										
C1=C(c2ccccc2)SC(N2CCCCC2)S1 (stereo not drawn)	> 100	> 100	> 100	> 100	> 100		> 100		> 100											
N=C1C(=N)c2ccccc2-c2ccccc21.[Cl-].[Ru+2].c1ccc(-c2ccccn2)nc1.c1ccc(-c2ccccn2)nc1	> 100		> 100	> 100			> 100	> 100	> 100											
O=c1[nH]/c(=C/c2ccc(OCc3ccccc3)cn2)c(=O)[nH]/c1=C/c1ccccc1	> 24.6	> 100		> 67	> 100	> 100	> 91.6	0.521	> 100	> 100										
COC1=NCc2ccccc2-c2ccccc21			> 100	> 100	> 100		> 100													
CCCCCOc1ccc(C=Nc2ccc(CCc3ccc(N=Cc4ccc(OCCCCC)cc4)cc3)cc2)cc1	> 100	> 100	> 100	> 100	> 100		> 100	> 100	> 100											
Cc1ccc2c(c1)-c1nc(N)c(C#N)c(-c3ccc(Cl)cc3)c1CCS2(=O)=O	> 100	92.1	> 100		> 100	> 100	> 100	> 100		> 100										
NC(=O)Nc1c(Cl)cc(S(N)(=O)=O)cc1Cl	> 100		> 100	> 100	> 100	> 100	> 100		> 100	> 100										
[N-]=[N+]=Nc1c(Cc2ccccc2)c(Cl)nc2ccccc12	> 100	65.3	> 100	41.3	83.1			> 100	> 100	92.3										
C#CCNC(CSSCC(N)C(=O)O)C(=O)O (stereo not drawn)	> 100	> 100	> 100	> 100	> 100		> 100	> 100	> 100	> 100										
C=CCC1(C#N)C(=S)NC2=C(C(=O)CC(C)(C)C2)C1c1ccccc1 (stereo not drawn)	> 100			> 100	> 100	> 100	> 100		60.5	> 100										
CCOC(=O)C(C#N)(Cc1c[nH]c2ccccc12)NC(C)=O (stereo not drawn)	> 100		> 100				> 100	> 100	> 100	> 100										
Cc1ccc(C(=N)c2ccccc2Cc2cccc3ccccc23)c2ccccc12	> 100	> 100	> 100	> 100	> 100	> 100	> 100		> 100	> 100										
O=C(O)CC(Cc1ccccc1Cl)C(=O)O (stereo not drawn)	> 100	> 100	> 100		> 100	> 100	> 100	> 100	> 100	> 100										
Cc1cc([NH-])c([NH-])cc1C.[Cl][Pt+2][Cl]	45.4	> 87.6	24.5	> 31.6	> 100		17	99.1	46.7	27.6	12	33.4	8.5	19.7	15.2	7.39		5.24	> 44.8	10.5
CCN(CCCOc1ccccc1)CCN(CC)CCCOc1ccccc1	23.5		28.9	24.7	23.4	29.1	27.5	48.4	28.9	34										
Fc1ccc(C(OCCN2CCN(CCCc3ccccc3)CC2)c2ccc(F)cc2)cc1	22.2	19.7	12.4		14.5	19.3	14.3	11.7	15.2	13.5										
CCCCN(CCCC)Cc1cc(Nc2ccnc3cc(Cl)ccc23)ccc1O	> 100		> 100				> 100	> 100							7.36	3.75		7.82	42.4	
C[C@@]1(O)C2CC3CC1(c1ccccc1)CC(/C3=N/O)/C2=N\O (stereo partly drawn)	> 100	> 100	> 100	> 100	> 100		> 100	> 100	> 100	> 100										
CCC/C(Cl)=N\OC(=O)Nc1ccc(F)cc1	33.3	35.3	4.12		40.9	28.4	34.8	32.4	32.6	3.47										
C=CCn1c(=O)c(C)cn(COCCO)c1=O	> 100		> 100	> 100	> 100	> 100	> 100	> 100	> 100	> 100										
CCn1nc(C)c2c1C(=O)NCC(=O)N2	> 100	> 100	> 100	> 100	> 100	> 100	> 100		> 100	> 100										
